The source made the active and inactive calls.
Legend:
Genome polyprotein = Genome polyprotein (dengue virus type 2, UniProt P29990); assay: flavivirus cap methylation enzyme inhibition – biochemical, confirmation dose response, primary screen (AID 588689); assay type: functional
[1] = biological target: T1, Mannose-6-phosphate isomerase (Homo sapiens, UniProt P34949); assay: MPI enzyme activity inhibition – biochemical, fluorescence intensity, coupled assay, primary screen (AID 1209)
T1 sequence (P34949 whole entry): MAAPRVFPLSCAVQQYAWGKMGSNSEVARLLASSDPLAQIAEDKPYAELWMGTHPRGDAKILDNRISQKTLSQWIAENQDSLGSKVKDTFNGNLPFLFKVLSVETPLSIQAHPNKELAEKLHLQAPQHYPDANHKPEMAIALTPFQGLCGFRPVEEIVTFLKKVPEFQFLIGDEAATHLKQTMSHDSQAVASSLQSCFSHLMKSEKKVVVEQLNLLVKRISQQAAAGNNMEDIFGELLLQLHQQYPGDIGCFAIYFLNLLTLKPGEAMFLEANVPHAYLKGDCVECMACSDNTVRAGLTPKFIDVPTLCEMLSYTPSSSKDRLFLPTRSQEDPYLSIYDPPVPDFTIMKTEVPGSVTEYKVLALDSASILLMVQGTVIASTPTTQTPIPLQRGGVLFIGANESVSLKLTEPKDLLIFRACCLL

Protein Tat = biological target: T2, Protein Tat (Human immunodeficiency virus type 1 group M subtype B (isolate HXB2)(HIV-1), UniProt P04608); assay type: functional;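 note: tat binding to TAR RNA read out by fluorescence polarization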
T2 sequence (P04608 whole entry): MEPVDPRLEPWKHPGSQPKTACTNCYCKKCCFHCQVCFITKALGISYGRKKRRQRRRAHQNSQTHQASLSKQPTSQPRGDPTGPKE

[2] = biological target: T1, Mannose-6-phosphate isomerase; assay: MPI inhibition at elevated mannose 6-phosphate – biochemical, fluorescence intensity, high mannose 6-phosphate, primary screen (AID 1220)
Albumin = Albumin (Bos taurus, UniProt P02769); assay: Counterscreen for inhibitors of T-cell receptor (TCR)-CD3 interaction: Fluorescence-based biochemical high throughput dose response assay to identify inhibitors of T-cell receptor (TCR)-CD3 interaction using a TAMRA-labeled BSA probe.; assay type: functional
Albumin, sequence (P02769 whole entry): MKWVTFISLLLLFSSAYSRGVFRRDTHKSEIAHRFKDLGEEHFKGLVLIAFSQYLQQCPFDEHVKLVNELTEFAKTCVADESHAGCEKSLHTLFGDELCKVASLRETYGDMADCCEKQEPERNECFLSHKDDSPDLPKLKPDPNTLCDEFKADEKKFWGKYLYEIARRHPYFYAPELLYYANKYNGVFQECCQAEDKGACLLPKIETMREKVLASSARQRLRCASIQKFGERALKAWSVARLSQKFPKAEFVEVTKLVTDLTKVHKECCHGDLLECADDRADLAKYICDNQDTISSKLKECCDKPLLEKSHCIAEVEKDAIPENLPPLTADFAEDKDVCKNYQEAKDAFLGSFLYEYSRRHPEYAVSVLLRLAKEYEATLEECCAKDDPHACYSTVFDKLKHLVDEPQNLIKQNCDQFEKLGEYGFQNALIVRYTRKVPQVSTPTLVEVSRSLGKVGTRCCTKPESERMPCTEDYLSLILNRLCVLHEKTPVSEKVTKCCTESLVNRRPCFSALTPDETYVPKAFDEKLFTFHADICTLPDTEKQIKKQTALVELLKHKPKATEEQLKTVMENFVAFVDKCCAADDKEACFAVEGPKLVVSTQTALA

[3] = biological target: Glucose-6-phosphate 1-dehydrogenase (Homo sapiens, UniProt P11413); assay: inhibition of Homo sapiens G6PD, dose series – biochemical, fluorescence, selectivity assay for P. falciparum G6PD inhibitor project, dose response (AID 504792); assay type: functional
Glucose-6-phosphate 1-dehydrogenase, sequence (P11413 whole entry): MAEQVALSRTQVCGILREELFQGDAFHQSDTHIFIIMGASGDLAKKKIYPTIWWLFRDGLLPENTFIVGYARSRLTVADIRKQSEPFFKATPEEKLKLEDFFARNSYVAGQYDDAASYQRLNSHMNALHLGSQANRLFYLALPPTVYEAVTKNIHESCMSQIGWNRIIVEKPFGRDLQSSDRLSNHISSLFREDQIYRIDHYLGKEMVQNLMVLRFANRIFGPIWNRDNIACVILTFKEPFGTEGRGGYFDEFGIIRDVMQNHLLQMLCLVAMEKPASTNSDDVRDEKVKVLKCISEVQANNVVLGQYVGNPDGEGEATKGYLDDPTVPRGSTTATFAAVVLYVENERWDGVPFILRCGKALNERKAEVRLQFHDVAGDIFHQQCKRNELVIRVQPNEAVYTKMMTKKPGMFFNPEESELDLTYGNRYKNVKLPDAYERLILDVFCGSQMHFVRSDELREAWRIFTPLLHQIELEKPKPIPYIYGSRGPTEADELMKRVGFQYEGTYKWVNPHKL

[4] = biological target: RNA-editing ligase 1, mitochondrial (Trypanosoma brucei brucei, UniProt P86926); assay: inhibition of trypanosome RNA editing ligase – biochemical, fluorescence, Trypanosoma brucei, dose response (AID 1117295); assay type: functional
RNA-editing ligase 1, mitochondrial, sequence (P86926 whole entry, the tested form may be a part): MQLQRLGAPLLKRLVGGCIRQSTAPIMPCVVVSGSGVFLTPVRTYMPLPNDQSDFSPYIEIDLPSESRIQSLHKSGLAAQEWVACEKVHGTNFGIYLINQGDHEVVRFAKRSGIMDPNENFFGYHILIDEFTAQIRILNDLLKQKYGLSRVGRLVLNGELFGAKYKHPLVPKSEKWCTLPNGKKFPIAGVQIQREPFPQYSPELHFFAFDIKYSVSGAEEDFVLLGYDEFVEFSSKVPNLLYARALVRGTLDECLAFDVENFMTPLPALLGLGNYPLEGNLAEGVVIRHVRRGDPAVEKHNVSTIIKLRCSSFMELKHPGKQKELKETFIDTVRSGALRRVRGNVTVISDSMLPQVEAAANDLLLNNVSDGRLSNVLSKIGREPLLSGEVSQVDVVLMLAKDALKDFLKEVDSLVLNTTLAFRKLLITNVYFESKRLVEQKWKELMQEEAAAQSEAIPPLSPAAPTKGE

[5] = biological target: T3, RNA-binding protein pos-1 (Caenorhabditis elegans, UniProt G5EF15); assay: disruptors of C. elegans POS-1 RNA interaction – biochemical, fluorescence polarization, dose response (AID 1964);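 note: purified POS-1 fused to maltose binding protein made in E. coli; potency of compounds blocking POS-1 binding to fluorescent RNA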
T3 sequence (G5EF15 whole entry): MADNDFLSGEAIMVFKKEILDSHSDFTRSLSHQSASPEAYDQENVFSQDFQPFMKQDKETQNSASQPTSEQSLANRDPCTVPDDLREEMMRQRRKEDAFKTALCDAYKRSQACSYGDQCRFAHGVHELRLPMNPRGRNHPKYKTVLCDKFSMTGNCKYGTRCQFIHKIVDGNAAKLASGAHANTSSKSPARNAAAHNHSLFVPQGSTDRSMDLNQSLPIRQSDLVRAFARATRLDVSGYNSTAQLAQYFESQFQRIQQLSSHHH

[6] = biological target: Induced myeloid leukemia cell differentiation protein Mcl-1 (Homo sapiens, UniProt Q07820); assay type: functional
Induced myeloid leukemia cell differentiation protein Mcl-1, sequence (Q07820 whole entry): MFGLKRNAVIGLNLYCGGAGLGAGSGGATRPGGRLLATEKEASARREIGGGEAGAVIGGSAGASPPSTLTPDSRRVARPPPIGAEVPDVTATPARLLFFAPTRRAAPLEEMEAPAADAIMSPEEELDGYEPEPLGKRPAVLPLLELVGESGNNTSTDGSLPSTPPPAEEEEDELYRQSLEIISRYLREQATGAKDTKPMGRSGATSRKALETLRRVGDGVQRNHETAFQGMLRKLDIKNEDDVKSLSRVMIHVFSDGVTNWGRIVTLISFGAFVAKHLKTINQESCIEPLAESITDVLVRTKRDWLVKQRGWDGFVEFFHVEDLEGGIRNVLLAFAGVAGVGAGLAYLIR

[7] = biological target: Glutathione-S-transferase (Schistosoma japonicum, UniProt Q26513); assay: GST-antibody interaction or FRET quenching – biochemical, TR-FRET, artefact control for Vif-APOBEC3G degradation inhibitor project, dose response (AID 1117362); assay type: functional
Glutathione-S-transferase, sequence (Q26513 whole entry): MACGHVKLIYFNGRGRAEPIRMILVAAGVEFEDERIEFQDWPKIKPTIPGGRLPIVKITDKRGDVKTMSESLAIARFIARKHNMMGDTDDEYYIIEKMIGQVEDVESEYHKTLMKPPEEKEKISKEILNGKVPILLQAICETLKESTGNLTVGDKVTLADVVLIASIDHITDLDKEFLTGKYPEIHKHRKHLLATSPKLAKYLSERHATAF

[8] = P. falciparum Dd2 growth inhibitors, dose response, SYBR Green, cherry-picked samples (AID 1159567); assay type: functional, cell-based
[9] = Plasmodium falciparum Dd2 Sybr green parasite growth Measured in Cell-Based and Microorganism Combination System Using Plate Reader - 2153-01_Inhibitor_Dose_DryPowder_Activity_Set3.; assay type: functional
[10] = toxicity to human hepatoma HepG2 cells – cell-based, cherry-picked samples, cytotoxicity control, dose response (AID 1159577); assay type: functional
[11] = growth inhibition of yeast DHODH-expressing 3D7 parasites – SYBR Green, dry powder samples, dose response (AID 1159570); assay type: functional, cell-based;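 note: parasite growth measured after 72 hours of compound exposure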
[12] = toxicity to human HepG2 hepatoma cells – cell-based, plate reader, dry powder samples, cytotoxicity control, dose response (AID 1159569); assay type: functional;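 note: inhibitor potency with signal falling toward the positive control level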
[13] = growth inhibition of PfATP4-mutant resistant parasites – NITD609-resistant line, SYBR Green, dry powder, dose response (AID 1159571); assay type: functional, cell-based;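 note: parasites synchronized at ring stage by sorbitol before testing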
[14] = Dd2 malaria parasite growth inhibition potency – SYBR Green, dry powder samples, dose response (AID 1159566); assay type: functional, cell-based;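 note: potency for growth inhibition with lower SYBR green DNA signal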
[15] = SNU-C1 cell viability reduction, dose response, CellTiter-Glo luminescence (AID 1117323); assay type: functional, cell-based
[16] = HCT116 cell viability decrease, GSK3B pretreatment – CellTiter-Glo, IC50, dose response (AID 1117339); assay type: functional; conditions: HCT-116
[17] = rise of 2N DNA cells, HeLa – IC50, dose response (AID 1117349); assay type: functional, cell-based
[18] = cytotoxicity toward HCT116 cells – cell-based, CellTiter-Glo luminescence, IC50, dose response (AID 1117332); assay type: functional; conditions: HCT-116
[19] = Reduced DLD-1 viability, concentration-response, CellTiter-Glo luminescence (AID 1117352); assay type: functional
[20] = rise of 4N DNA cells, HeLa – IC50, dose response (AID 1117351); assay type: functional, cell-based
[21] = cytotoxicity toward HT-29 cells – cell-based, CellTiter-Glo luminescence, IC50, dose response (AID 1117330); assay type: functional
[22] = biological target: T4, Probable nicotinate-nucleotide adenylyltransferase (Staphylococcus aureus (strain N315), UniProt P65502); assay type: functional, Staphylococcus aureus subsp. aureus N315; conditions: read-out: IC50_Mean;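 for IC50 Mean: confirmatory dose-response retesting of NadD inhibitor hits first found in an ultra-high-throughput screen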
T4 sequence (P65502 whole entry): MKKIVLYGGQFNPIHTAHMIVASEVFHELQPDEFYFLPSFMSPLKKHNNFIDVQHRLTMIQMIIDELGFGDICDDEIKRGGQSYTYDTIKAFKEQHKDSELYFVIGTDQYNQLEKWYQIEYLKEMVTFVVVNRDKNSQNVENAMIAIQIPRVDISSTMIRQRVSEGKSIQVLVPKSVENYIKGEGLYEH

Streptokinase A = biological target: T5, Streptokinase A (Streptococcus pyogenes serotype M1, UniProt P10520); assay: viability-normalized secreted streptokinase activity reduction – plasminogen activation absorbance, OD405, dose response (AID 1914); assay type: functional, Streptococcus pyogenes M1 GAS;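 note: secreted streptokinase activity via plasminogen activation per viability signal from cell pellet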
T5 sequence (P10520 whole entry): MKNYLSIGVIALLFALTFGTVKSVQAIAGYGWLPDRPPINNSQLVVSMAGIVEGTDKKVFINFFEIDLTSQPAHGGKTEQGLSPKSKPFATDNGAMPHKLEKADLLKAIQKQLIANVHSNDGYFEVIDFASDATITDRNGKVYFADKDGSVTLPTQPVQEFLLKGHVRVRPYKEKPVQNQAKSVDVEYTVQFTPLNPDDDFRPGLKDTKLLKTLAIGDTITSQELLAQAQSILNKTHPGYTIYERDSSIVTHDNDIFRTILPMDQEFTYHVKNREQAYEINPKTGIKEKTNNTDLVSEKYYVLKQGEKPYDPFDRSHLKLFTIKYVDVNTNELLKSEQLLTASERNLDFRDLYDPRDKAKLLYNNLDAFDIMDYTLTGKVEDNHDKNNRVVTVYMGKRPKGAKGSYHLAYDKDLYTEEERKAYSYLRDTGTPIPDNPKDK

[23] = biological target: T4, Probable nicotinate-nucleotide adenylyltransferase; assay type: functional, Staphylococcus aureus subsp. aureus N315
Streptococcus = assay: GAS UMAA2166 growth inhibition – luminescence, BacTiterGlo, counter-screen for streptokinase expression inhibitor project, dose response (AID 1915); assay type: functional, organism-based;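 note: potency for reduction of bacterial viability or growth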
[24] = glucagon-like peptide-1 release potency in STC-1, concentration-response, half-maximal inhibitory concentration in the STC-1 line (AID 1117345); assay type: functional, cell-based
[25] = Potency on glucagon-like peptide 1 release, dose-response in NCI-H716 cell line, half maximal inhibitory concentration (AID 1117344); assay type: functional, cell-based
[26] = test system: Streptococcus sp. 'group A'; assay: Streptococcus pyogenes SK(-)GAS viability under kanamycin – luminescence, BacTiterGlo, confirmation, counter-screen for streptokinase expression inhibitor project, dose response (AID 1900); assay type: functional, organism-based
[27] = Dd2 parasite growth inhibition in erythrocytes – SYBR Green, dry powder samples, set 9, dose response (AID 1159568); assay type: functional, cell-based

Genome polyprotein, sequence (P29990 2492-3391 limits assumed): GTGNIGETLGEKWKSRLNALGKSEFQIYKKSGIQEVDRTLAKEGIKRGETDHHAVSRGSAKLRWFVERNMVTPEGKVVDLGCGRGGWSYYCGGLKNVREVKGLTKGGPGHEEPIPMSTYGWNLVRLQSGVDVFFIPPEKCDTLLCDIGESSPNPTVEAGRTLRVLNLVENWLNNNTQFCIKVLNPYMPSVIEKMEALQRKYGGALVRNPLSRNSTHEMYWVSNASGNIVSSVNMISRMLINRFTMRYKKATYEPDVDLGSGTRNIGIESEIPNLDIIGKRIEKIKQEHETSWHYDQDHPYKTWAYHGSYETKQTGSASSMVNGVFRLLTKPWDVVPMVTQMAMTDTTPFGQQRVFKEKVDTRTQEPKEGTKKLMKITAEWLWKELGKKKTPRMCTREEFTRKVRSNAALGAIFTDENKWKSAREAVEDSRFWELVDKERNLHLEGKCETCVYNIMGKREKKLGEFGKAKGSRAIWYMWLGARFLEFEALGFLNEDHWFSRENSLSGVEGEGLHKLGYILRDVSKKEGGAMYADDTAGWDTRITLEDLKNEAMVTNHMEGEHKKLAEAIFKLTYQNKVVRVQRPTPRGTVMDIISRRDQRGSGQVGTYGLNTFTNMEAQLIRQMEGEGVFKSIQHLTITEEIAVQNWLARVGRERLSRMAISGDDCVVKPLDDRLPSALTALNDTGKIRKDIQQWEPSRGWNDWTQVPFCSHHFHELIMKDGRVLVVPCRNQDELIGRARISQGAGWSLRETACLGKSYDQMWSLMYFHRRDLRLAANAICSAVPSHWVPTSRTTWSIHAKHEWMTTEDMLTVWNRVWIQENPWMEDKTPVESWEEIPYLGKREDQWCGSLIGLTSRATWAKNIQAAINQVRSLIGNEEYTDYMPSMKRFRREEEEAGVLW

C/N=c1\scc(C)n1/N=C/c1ccc(O)c(O)c1O
IC50 (Genome polyprotein): 13.9 µM (active)
IC50 [1]: > 50 µM (not active)
IC50 (Protein Tat): 49.8 µM (inconclusive)
IC50 [2]: > 50 µM (not active)
IC50 (Albumin): > 94.1 µM (inactive)
IC50 [3]: 44 µM (inactive)
IC50 [4]: > 96.6 µM (inactive)
EC50 [5]: > 300 µM (inconclusive)
IC50 [6]: 2.72 µM (active)
IC50 [7]: > 100 µM (active)

CC(C)NC(=O)N1[C@H](C#N)[C@H](c2ccc(-c3ccc(F)cc3)cc2)[C@H]1CO
AC50 [8]: 0.858 µM (active)
AC50 [9]: 2.93 µM (active)
AC50 [10]: 25.6 µM (active)
AC50 [11]: 18.2 µM (active)
AC50 [12]: 79.5 µM (active)
AC50 [13]: 0.469 µM (active)
AC50 [14]: 0.442 µM (active)

O=Cc1ccc(O)c(O)c1O
IC50 [15]: > 20 µM (inactive)
IC50 [16]: 0.141 µM (active)
IC50 [17]: > 10 µM (inactive)
IC50 [18]: > 20 µM (inactive)
IC50 [19]: > 20 µM (inactive)
IC50 [20]: > 10 µM (inactive)
IC50 [21]: > 20 µM (inactive)

CC(C)(O)c1ccccc1CC[C@@H](SCC1(CC(=O)O)CC1)c1cccc(/C=C/c2ccc3ccc(Cl)cc3n2)c1 [MONTELUKAST SODIUM]
IC50 [22]: 20.6 µM (active)
EC50 (Streptokinase A): 3.41 µM (active)
IC50 [23]: 6.18 µM (active)
EC50 (Streptococcus): 7.96 µM (active)
IC50 [24]: > 40 µM (inactive)
IC50 [25]: 20.7 µM (inactive)
EC50 [26]: 1.19 µM (active)

C[C@@H]1CN([C@H](C)CO)C(=O)c2c(c3ccccc3n2C)-c2ccccc2CO[C@@H]1CN(C)S(=O)(=O)c1ccc([N+](=O)[O-])cc1
AC50 [27]: 7.62 µM (active)
